Measurements as given in patent publication US20060021075A1, “Group 1 CD1 transgenic mice and their uses” (priority 2004, published 2006).

Test system: BM-DCs
Assay: Flow cytometric analysis of CD1a, b, c expression on BM-DCs of hCD1Tg mice
Assay type: cell-based, mouse
Conditions: BM-DCs from hCD1Tg mice cultured in GM-CSF and IL-4

Row | Substance | Upregulation of CD1a, b, and c expression on BM-DCs
1 | IFN-γ: cytokine tested for upregulation of CD1 on BM-DCs | cannot be upregulated
2 | TNF-α | cannot be upregulated
